The source of these data is ChEMBL document CHEMBL3585307, “Cyclic Steroid Glycosides from the Starfish Echinaster luzonicus: Structures and Immunomodulatory Activities” (J Nat Prod, 2015).

Data set [1] deals with RAW264.7. The data set is described as follows: Stimulation of lysosomal activity in mouse RAW264.7 cells at 0.001 to 1 uM after 24 hrs by acridine orange based/immunomodulatory activity assay. The class given is functional, cell-based.
Data set [2] concerns RAW264.7. The data set is described as follows: Induction of reactive oxygen species generation in mouse RAW264.7 cells at 0.01 uM after 24 hrs by DCF-DA dye-based/immunomodulatory activity assay relative to control. The class given is functional.
The subject of data set [3] is RAW264.7. The data set is described as follows: Stimulation of lysosomal activity in mouse RAW264.7 cells at 0.1 uM after 24 hrs by acridine orange based/immunomodulatory activity assay. The class given is functional.
Data set [4] concerns RAW264.7. The data set is described as follows: Induction of reactive oxygen species generation in mouse RAW264.7 cells at 0.01 to 10 uM after 24 hrs by DCF-DA dye-based/immunomodulatory activity assay. The class given is functional, cell-based.
Data set [5] concerns RAW264.7. The data set is described as follows: Induction of NO production in mouse RAW264.7 cells at 0.01 uM after 24 hrs by FA-OMe fluorescent probe based/immunomodulatory activity assay. The class given is functional.
Data set [6] concerns RAW264.7. The data set is described as follows: Induction of NO production in mouse RAW264.7 cells after 24 hrs by FA-OMe fluorescent probe based/immunomodulatory activity assay. Type of data set: functional, cell-based.
Data set [7] has as its system RAW264.7. The data set is described as follows: Stimulation of lysosomal activity in mouse RAW264.7 cells after 24 hrs by acridine orange based/immunomodulatory activity assay. Type of data set: functional, cell-based.
Data set [8] relates to RAW264.7. The data set is described as follows: Cytotoxicity against mouse RAW264.7 cells assessed as cell viability at 0.001 to 50 uM after 48 hrs by MTT assay. The class given is cell-based. Particulars: raw264.7, 48 h.
In data set [9] the test system is RAW264.7. The data set is described as follows: Stimulation of lysosomal activity in mouse RAW264.7 cells at 0.1 uM after 24 hrs by acridine orange based/immunomodulatory activity assay relative to 1 ug/ml LPS stimulation. The class given is functional, cell-based.
Data set [10] has as its system RAW264.7. The data set is described as follows: Stimulation of lysosomal activity in mouse RAW264.7 cells at 10 uM after 24 hrs by acridine orange based/immunomodulatory activity assay. Type of data set: functional, cell-based.
The subject of data set [11] is RAW264.7. The data set is described as follows: Induction of NO production in mouse RAW264.7 cells at 0.1 uM after 24 hrs by FA-OMe fluorescent probe based/immunomodulatory activity assay. Type of data set: functional.

Active and inactive are the calls of the source. The calls are words filed in the database; no cut-off is given here.

Turning to `CC(C)CC(=O)C[C@@H](C)[C@H]1CC[C@H]2C3=C[C@H]4OC[C@H]5O[C@@H](O[C@H]6[C@@H](OC[C@H](O)[C@@H]6O)O[C@H]6[C@H](O[C@H]7CC[C@@](C)([C@@H]4C7)[C@H]3CC[C@]12C)O[C@H](C(=O)O)[C@@H](O)[C@@H]6O)[C@H](O)[C@@H](O)[C@H]5O`, the result in the data set with RAW264.7 [1], in the data set on RAW264.7 [4] and in the data set with RAW264.7 [9] was Active. The “fold change (FC)” value in the data set with RAW264.7 [2] worked out at 2. Moreover, the Activity was 50% in the data set with RAW264.7 [3]; 15% in the data set on RAW264.7 [5]; “Dose-dependent effect” in the data set with RAW264.7 [6]; “Dose-dependent effect” in the data set on RAW264.7 [7]; “Non-toxic” in the data set with RAW264.7 [8]; 15% in the data set on RAW264.7 [11]. Further, the result with RAW264.7 [10] was inactive.

Take `CC(C)CC(=O)C[C@@H](C)[C@H]1CC[C@H]2C3=C[C@H]4OC[C@H]5O[C@@H](O[C@H]6[C@@H](OC[C@H](O)[C@@H]6O)O[C@H]6[C@H](O[C@H]7CC[C@@](C)([C@@H]4C7)[C@H]3CC[C@]12C)O[C@H](C(=O)O)[C@@H](O)[C@@H]6O)[C@H](O)[C@@H](O)[C@@H]5O`: the outcome in the data set on RAW264.7 [4] and in the data set with RAW264.7 [6] was inactive. Moreover, in the data set on RAW264.7 [8], the Activity result is given as “Non-toxic”.
